Data from PMC5218480 (PLoS ONE, 2017).

System: MV-4-11 cells
Assay: Gene expression microarray analysis (Affymetrix PrimeView) and GSEA
Format: cell-based, human
Set-up: RFU PODN (11730768_x_at) / Fold change /veh PODN (11730768_x_at) / RFU LINC00158 (11744669_a_at) / Fold change /veh LINC00158 (11744669_a_at) / RFU DUSP10 (11751237_a_at) / Fold change /veh DUSP10 (11751237_a_at) / RFU ID3 (11757404_x_at) / Fold change /veh ID3 (11757404_x_at) / RFU PLEKHG5 (11737974_s_at) / Fold change /veh PLEKHG5 (11737974_s_at) / RFU LRRC4B (11730491_at) / Fold change /veh LRRC4B (11730491_at) / RFU GIMAP4 (11747438_a_at) / Fold change /veh GIMAP4 (11747438_a_at) / RFU KRT8 (11758183_x_at) / Fold change /veh KRT8 (11758183_x_at) / RFU CNN1 (11734310_a_at) / Fold change /veh CNN1 (11734310_a_at) / RFU VPS37D (11726825_at) / Fold change /veh VPS37D (11726825_at) / RFU C10orf10 (11716522_x_at) / Fold change /veh C10orf10 (11716522_x_at) / RFU KIR2DL2 /// KIR2DL4 /// KIR2DL5A /// KIR2DL5B /// KIR2DS1 /// KIR2DS2 /// KIR2DS3 /// KIR2DS4 /// KIR3DL3 /// KIR3DL3 /// KIR3DS1 (11738374_at) / Fold change /veh KIR2DL2 /// KIR2DL4 /// KIR2DL5A /// KIR2DL5B /// KIR2DS1 /// KIR2DS2 /// KIR2DS3 /// KIR2DS4 /// KIR3DL3 /// KIR3DL3 /// KIR3DS1 (11738374_at) / RFU C1QL1 (11718748_at) / Fold change /veh C1QL1 (11718748_at) / RFU TMPRSS4 (11747572_a_at) / Fold change /veh TMPRSS4 (11747572_a_at) / RFU HAMP (11756126_x_at) / Fold change /veh HAMP (11756126_x_at) / RFU RNFT2 (11725882_a_at) / Fold change /veh RNFT2 (11725882_a_at) / RFU NR4A2 (11747474_a_at) / Fold change /veh NR4A2 (11747474_a_at) / RFU ABCC12 (11746883_a_at) / Fold change /veh ABCC12 (11746883_a_at) / RFU TMEM136 (11760407_x_at) / Fold change /veh TMEM136 (11760407_x_at) / RFU CLDN22 /// WWC2 (11732394_at) / Fold change /veh CLDN22 /// WWC2 (11732394_at) / RFU HLA-DPB1 (11760878_x_at) / Fold change /veh HLA-DPB1 (11760878_x_at) / RFU SPINT1 (11716480_a_at) / Fold change /veh SPINT1 (11716480_a_at) / RFU GAP43 (11754022_s_at) / Fold change /veh GAP43 (11754022_s_at) / RFU A4GNT (11735810_at) / Fold change /veh A4GNT (11735810_at) / RFU PRB3 (11715151_x_at) / Fold change /veh PRB3 (11715151_x_at) / RFU TUBB4B (11761932_at) / Fold change /veh TUBB4B (11761932_at) / RFU CAPN14 (11732068_a_at) / Fold change /veh CAPN14 (11732068_a_at) / RFU TMCC2 (11721928_a_at) / Fold change /veh TMCC2 (11721928_a_at) / RFU IRGQ (11745062_a_at) / Fold change /veh IRGQ (11745062_a_at) / RFU FAM174B (11720279_a_at) / Fold change /veh FAM174B (11720279_a_at) / RFU TMPRSS4 (11748680_a_at) / Fold change /veh TMPRSS4 (11748680_a_at) / RFU FAM212B (11763350_a_at) / Fold change /veh FAM212B (11763350_a_at) / RFU PLEKHG5 (11743358_a_at) / Fold change /veh PLEKHG5 (11743358_a_at) / RFU ZSCAN30 (11745921_a_at) / Fold change /veh ZSCAN30 (11745921_a_at) / RFU CMKLR1 (11741424_a_at) / Fold change /veh CMKLR1 (11741424_a_at) / RFU LOC101060620 /// MAPK8IP1 (11723275_at) / Fold change /veh LOC101060620 /// MAPK8IP1 (11723275_at) / RFU SPTSSB (11747773_x_at) / Fold change /veh SPTSSB (11747773_x_at) / RFU PRSS12 (11739890_at) / Fold change /veh PRSS12 (11739890_at) / RFU BIN1 (11741810_x_at) / Fold change /veh BIN1 (11741810_x_at) / RFU WNT11 (11732464_a_at) / Fold change /veh WNT11 (11732464_a_at) / RFU C10orf10 (11716521_a_at) / Fold change /veh C10orf10 (11716521_a_at) / RFU C5orf56 (11738089_at) / Fold change /veh C5orf56 (11738089_at) / RFU CYB561 (11721691_x_at) / Fold change /veh CYB561 (11721691_x_at) / RFU ANKRD19P (11752326_a_at) / Fold change /veh ANKRD19P (11752326_a_at) / RFU OR2T12 /// OR2T33 /// OR2T8 (11738714_s_at) / Fold change /veh OR2T12 /// OR2T33 /// OR2T8 (11738714_s_at) / RFU VCAN (11748164_a_at) / Fold change /veh VCAN (11748164_a_at) / RFU JSRP1 (11732532_at) / Fold change /veh JSRP1 (11732532_at) / RFU KRTAP10-11 (11738290_x_at) / Fold change /veh KRTAP10-11 (11738290_x_at) / RFU MYO3A (11730013_a_at) / Fold change /veh MYO3A (11730013_a_at) / RFU EBF3 (11725865_a_at) / Fold change /veh EBF3 (11725865_a_at) / RFU CAMK2N1 (11719241_x_at) / Fold change /veh CAMK2N1 (11719241_x_at) / RFU C5orf56 (11738088_a_at) / Fold change /veh C5orf56 (11738088_a_at) / RFU OLFML3 (11715873_a_at) / Fold change /veh OLFML3 (11715873_a_at) / RFU LOC100653217 /// NTM (11731650_a_at) / Fold change /veh LOC100653217 /// NTM (11731650_a_at) / RFU MAPK11 (11762145_a_at) / Fold change /veh MAPK11 (11762145_a_at) / RFU FIZ1 (11724087_x_at) / Fold change /veh FIZ1 (11724087_x_at) / RFU OASL (11726364_x_at) / Fold change /veh OASL (11726364_x_at) / RFU SOX15 (11748057_x_at) / Fold change /veh SOX15 (11748057_x_at) / RFU CD79A (11719716_a_at) / Fold change /veh CD79A (11719716_a_at) / RFU HIST1H1D (11736915_at) / Fold change /veh HIST1H1D (11736915_at) / RFU CASKIN2 (11723855_a_at) / Fold change /veh CASKIN2 (11723855_a_at) / RFU LOC730098 (11760151_x_at) / Fold change /veh LOC730098 (11760151_x_at) / RFU OR4N2 (11742367_at) / Fold change /veh OR4N2 (11742367_at) / RFU PRRT2 (11749266_a_at) / Fold change /veh PRRT2 (11749266_a_at) / RFU SNX32 (11753110_a_at) / Fold change /veh SNX32 (11753110_a_at) / RFU CDHR5 (11726645_a_at) / Fold change /veh CDHR5 (11726645_a_at) / RFU RCAN1 (11760418_a_at) / Fold change /veh RCAN1 (11760418_a_at) / RFU FAM167A (11723789_a_at) / Fold change /veh FAM167A (11723789_a_at) / RFU FAM26E (11764081_at) / Fold change /veh FAM26E (11764081_at) / RFU ISYNA1 (11749810_s_at) / Fold change /veh ISYNA1 (11749810_s_at) / RFU ACY1 (11761880_at) / Fold change /veh ACY1 (11761880_at) / RFU 11764098_at / Fold change /veh 11764098_at / RFU SAMD14 (11745864_x_at) / Fold change /veh SAMD14 (11745864_x_at) / RFU NPB (11741838_a_at) / Fold change /veh NPB (11741838_a_at) / RFU TMPRSS6 (11731388_a_at) / Fold change /veh TMPRSS6 (11731388_a_at) / RFU KRTAP10-2 (11738614_at) / Fold change /veh KRTAP10-2 (11738614_at) / RFU ARHGAP8 /// PRR5-ARHGAP8 (11727945_x_at) / Fold change /veh ARHGAP8 /// PRR5-ARHGAP8 (11727945_x_at) / RFU KRTAP5-7 /// NADSYN1 (11734609_at) / Fold change /veh KRTAP5-7 /// NADSYN1 (11734609_at) / RFU RASL12 (11751679_a_at) / Fold change /veh RASL12 (11751679_a_at) / RFU CDKN2B (11736163_a_at) / Fold change /veh CDKN2B (11736163_a_at) / RFU PRF1 (11729649_at) / Fold change /veh PRF1 (11729649_at) / RFU, ZNF638 /// ZNF638-IT1 / Fold change vs veh, ZNF638 /// ZNF638-IT1 / RFU, PANK3 / Fold change vs veh, PANK3 / RFU, SH3YL1 / Fold change vs veh, SH3YL1 / RFU, ZEB2 / Fold change vs veh, ZEB2 / RFU, NRIP1 / Fold change vs veh, NRIP1 / RFU, PTTG1IP / Fold change vs veh, PTTG1IP / RFU, CAPN2 / Fold change vs veh, CAPN2 / RFU, MED14 / Fold change vs veh, MED14 / RFU, SNORA58 / Fold change vs veh, SNORA58 / RFU, C1orf63 / Fold change vs veh, C1orf63 / RFU, LRRFIP1 / Fold change vs veh, LRRFIP1 / RFU, NDUFAF7 / Fold change vs veh, NDUFAF7 / RFU, SLC12A2 / Fold change vs veh, SLC12A2 / RFU, IBTK / Fold change vs veh, IBTK / RFU, ESF1 / Fold change vs veh, ESF1 / Fold change vs veh, TMEM50B / RFU, TAOK1 / Fold change vs veh, TAOK1 / RFU, ACBD3 / Fold change vs veh, ACBD3 / RFU, TMA16 / Fold change vs veh, TMA16 / RFU, RWDD3 / Fold change vs veh, RWDD3 / RFU, BCAT1 / Fold change vs veh, BCAT1 / RFU, EDEM3 / Fold change vs veh, EDEM3 / RFU, TMEM33 / Fold change vs veh, TMEM33 / RFU, WDR75 / Fold change vs veh, WDR75 / RFU, AHCTF1 / Fold change vs veh, AHCTF1 / RFU, TFRC / Fold change vs veh, TFRC / RFU, ZDHHC17 / Fold change vs veh, ZDHHC17 / RFU, NOM1 / Fold change vs veh, NOM1 / RFU, ARL8B / Fold change vs veh, ARL8B / RFU, ZBTB11 / Fold change vs veh, ZBTB11 / RFU, TAMM41 / Fold change vs veh, TAMM41 / RFU, KIAA1704 /// LOC100996395 / Fold change vs veh, KIAA1704 /// LOC100996395 / RFU, ING1 / Fold change vs veh, ING1 / RFU, TRMT61B / Fold change vs veh, TRMT61B / RFU, FUBP3 / Fold change vs veh, FUBP3 / RFU, TP53 / Fold change vs veh, TP53 / RFU, TNKS2 / Fold change vs veh, TNKS2 / RFU, ZFP14 / Fold change vs veh, ZFP14 / RFU, ACTR2 / Fold change vs veh, ACTR2 / RFU, PPP3R1 / Fold change vs veh, PPP3R1 / RFU, PIK3R1 / Fold change vs veh, PIK3R1 / RFU, HNRNPA1 / Fold change vs veh, HNRNPA1 / RFU, RNF170 / Fold change vs veh, RNF170 / RFU, ZNF28 / Fold change vs veh, ZNF28 / RFU, RNGTT / Fold change vs veh, RNGTT / RFU, OGT / Fold change vs veh, OGT / RFU, BRD1 / Fold change vs veh, BRD1 / RFU, MARS / Fold change vs veh, MARS / RFU, ZNF655 / Fold change vs veh, ZNF655 / RFU, FAHD1 / Fold change vs veh, FAHD1 / RFU, BDP1 / Fold change vs veh, BDP1 / RFU, LRRCC1 / Fold change vs veh, LRRCC1 / RFU, ARID1A / Fold change vs veh, ARID1A / RFU, ZNF146 / Fold change vs veh, ZNF146 / RFU, ZNF330 / Fold change vs veh, ZNF330 / RFU, GPN3 / Fold change vs veh, GPN3 / RFU, C9orf123 / Fold change vs veh, C9orf123 / RFU, N4BP2L2 / Fold change vs veh, N4BP2L2 / RFU, ARFIP1 / Fold change vs veh, ARFIP1 / RFU, FAM179B / Fold change vs veh, FAM179B / RFU, BCL10 / Fold change vs veh, BCL10 / RFU, UHRF1BP1L / Fold change vs veh, UHRF1BP1L / RFU, BET1 / Fold change vs veh, BET1 / RFU, CNOT2 / Fold change vs veh, CNOT2 / RFU, ZNF268 / Fold change vs veh, ZNF268 / Fold change vs veh, ZNF507 / RFU, DGCR2 / Fold change vs veh, DGCR2 / RFU, WDSUB1 / Fold change vs veh, WDSUB1 / Fold change vs veh, HSP90B1 /// MIR3652 / RFU, ADSS / Fold change vs veh, ADSS / RFU, GK / Fold change vs veh, GK / RFU, ZNF148 / Fold change vs veh, ZNF148 / RFU, TAF9 / Fold change vs veh, TAF9 / RFU, SLC1A5 / Fold change vs veh, SLC1A5 / RFU, SLMO2 / Fold change vs veh, SLMO2 / RFU, ABCC4 / Fold change vs veh, ABCC4 / RFU, LOC101060439 /// RAP1B / Fold change vs veh, LOC101060439 /// RAP1B / RFU, RFX7 / Fold change vs veh, RFX7 / RFU, GTPBP10 / Fold change vs veh, GTPBP10 / RFU, CNEP1R1 / Fold change vs veh, CNEP1R1 / RFU, BIVM-ERCC5 /// ERCC5 / Fold change vs veh, BIVM-ERCC5 /// ERCC5 / RFU, ILF3 / Fold change vs veh, ILF3 / RFU 11762660_at / Fold change /veh 11762660_at / RFU VCAN (11757783_s_at) / Fold change /veh VCAN (11757783_s_at) / RFU DDX43 (11728927_at) / Fold change /veh DDX43 (11728927_at) / RFU KRT8 (11758188_x_at) / Fold change /veh KRT8 (11758188_x_at) / RFU NKD1 (11759106_at) / Fold change /veh NKD1 (11759106_at) / RFU SRD5A1 (11742802_a_at) / Fold change /veh SRD5A1 (11742802_a_at) / RFU TPSAB1 /// TPSB2 (11721975_s_at) / Fold change /veh TPSAB1 /// TPSB2 (11721975_s_at) / RFU GSTM3 (11746129_a_at) / Fold change /veh GSTM3 (11746129_a_at) / RFU IL23R (11737362_x_at) / Fold change /veh IL23R (11737362_x_at) / RFU TMEM51 (11727254_a_at) / Fold change /veh TMEM51 (11727254_a_at) / RFU PIWIL2 (11732686_x_at) / Fold change /veh PIWIL2 (11732686_x_at) / RFU ORM1 (11744905_x_at) / Fold change /veh ORM1 (11744905_x_at) / RFU CCDC152 (11743942_at) / Fold change /veh CCDC152 (11743942_at) / RFU ECM1 (11717891_a_at) / Fold change /veh ECM1 (11717891_a_at) / RFU IL23R (11748794_a_at) / Fold change /veh IL23R (11748794_a_at) / RFU TNFAIP8L3 (11732012_x_at) / Fold change /veh TNFAIP8L3 (11732012_x_at) / RFU MBOAT4 (11741988_at) / Fold change /veh MBOAT4 (11741988_at) / RFU 11764193_at / Fold change /veh 11764193_at / RFU TMEM53 (11763286_at) / Fold change /veh TMEM53 (11763286_at) / RFU MAGEB2 (11727129_at) / Fold change /veh MAGEB2 (11727129_at) / RFU TMEM200A (11744735_a_at) / Fold change /veh TMEM200A (11744735_a_at) / RFU CCDC152 (11751479_a_at) / Fold change /veh CCDC152 (11751479_a_at) / RFU FAM211A (11726209_a_at) / Fold change /veh FAM211A (11726209_a_at) / RFU RGS16 (11746705_a_at) / Fold change /veh RGS16 (11746705_a_at) / RFU VCAN (11755009_s_at) / Fold change /veh VCAN (11755009_s_at) / RFU RHOB (11743442_s_at) / Fold change /veh RHOB (11743442_s_at) / RFU RGS16 (11720943_a_at) / Fold change /veh RGS16 (11720943_a_at) / RFU RGS16 (11720944_at) / Fold change /veh RGS16 (11720944_at) / RFU, VPS4B / Fold change vs veh, VPS4B / RFU, CREB1 / Fold change vs veh, CREB1 / RFU, DNAJC13 / Fold change vs veh, DNAJC13 / RFU, GNAQ / Fold change vs veh, GNAQ / RFU, CDK5R1 / Fold change vs veh, CDK5R1 / RFU, ZRANB3 / Fold change vs veh, ZRANB3 / RFU, CUL4A / Fold change vs veh, CUL4A / RFU, CCNY / Fold change vs veh, CCNY / RFU, UFL1 / Fold change vs veh, UFL1 / RFU, COG3 / Fold change vs veh, COG3 / RFU, DIAPH2 / Fold change vs veh, DIAPH2 / RFU, SKA2 / Fold change vs veh, SKA2 / RFU, AFF3 / Fold change vs veh, AFF3 / RFU, LMF1 / Fold change vs veh, LMF1 / RFU, IPO11 / Fold change vs veh, IPO11 / RFU, DFFB / Fold change vs veh, DFFB / RFU, FOXP1 / Fold change vs veh, FOXP1 / RFU, CARD8 / Fold change vs veh, CARD8 / RFU, STRN3 / Fold change vs veh, STRN3 / RFU, ADK / Fold change vs veh, ADK / RFU, RASSF2 / Fold change vs veh, RASSF2 / RFU, WIPF1 / Fold change vs veh, WIPF1 / RFU, LARP1B / Fold change vs veh, LARP1B / RFU, RASA1 / Fold change vs veh, RASA1 / RFU, RB1 / Fold change vs veh, RB1 / RFU, PPFIA1 / Fold change vs veh, PPFIA1 / RFU, MAT2A / Fold change vs veh, MAT2A / RFU, CCT5 / Fold change vs veh, CCT5 / RFU, WDR92 / Fold change vs veh, WDR92 / RFU, CUX1 / Fold change vs veh, CUX1 / RFU, TTC7A / Fold change vs veh, TTC7A / RFU, TMEM135 / Fold change vs veh, TMEM135 / RFU, DEPTOR / Fold change vs veh, DEPTOR / RFU, CPM / Fold change vs veh, CPM / RFU, DNAJB6 / Fold change vs veh, DNAJB6 / RFU, CACNA2D3 / Fold change vs veh, CACNA2D3 / RFU, DTX4 / Fold change vs veh, DTX4 / RFU, TFCP2 / Fold change vs veh, TFCP2 / RFU, GMCL1 /// GMCL1P1 / Fold change vs veh, GMCL1 /// GMCL1P1 / RFU, AEBP2 / Fold change vs veh, AEBP2 / RFU, SNHG1 /// SNORD22 /// SNORD25 /// SNORD26 /// SNORD27 /// SNORD28 /// SNORD29 /// SNORD31 / Fold change vs veh, SNHG1 /// SNORD22 /// SNORD25 /// SNORD26 /// SNORD27 /// SNORD28 /// SNORD29 /// SNORD31 / Fold change (Aza/veh), C12orf56 (ProbeSet 11735607_a_at) / Fold change (ACY-1035/veh), C12orf56 (ProbeSet 11735607_a_at) / Fold change (Aza/veh), FGFR1OP (ProbeSet 11751329_s_at) / Fold change (ACY-1035/veh), FGFR1OP (ProbeSet 11751329_s_at) / Fold change (Aza/veh), VPS36 (ProbeSet 11739960_a_at) / Fold change (ACY-1035/veh), VPS36 (ProbeSet 11739960_a_at) / RFU SYPL1 (11715823_x_at) / Fold change /veh SYPL1 (11715823_x_at) / RFU IGFBP7 (11715501_s_at) / Fold change /veh IGFBP7 (11715501_s_at) / RFU REEP3 (11722064_at) / Fold change /veh REEP3 (11722064_at) / RFU IGLL1 (11728026_x_at) / Fold change /veh IGLL1 (11728026_x_at): dose or concentration left out as unconfirmed
Settings: ProbeSet 11758919_x_at; LIST D

## Nc1ccc(-c2cccs2)cc1NC(=O)c1ccc2c(c1)cc(C1CC1)n2CCN1CCOCC1 [ACY-1035]
  RFU, TFCP2: 87.13 RFU
